{
  "source": "ChEMBL document CHEMBL1130426",
  "about": "“Probing the mechanism of action and decomposition of amino acid phosphomonoester amidates of antiviral nucleoside prodrugs” (J Med Chem, 1997)",
  "key": {"[1]": {"assay": "Cytotoxic concentration required to inhibit 50% […] in peripheral blood mononuclear cells (PBMC)", "format": "functional", "details": "Homo sapiens"}, "[2]": {"assay": "Effective concentration required to inhibit 50% of HIV-1 in peripheral blood mononuclear cells (PBMC)", "format": "functional, Homo sapiens"}, "CCRF-CEM": {"test_system": "CCRF-CEM", "assay": "Cytotoxic concentration required to inhibit 50% […] in CEM cells", "format": "functional", "details": "Homo sapiens"}},
  "data": [
    {"smiles": "COC(=O)[C@H](Cc1ccccc1)NP(=O)(OC)OCC1OC(n2cc(C)c(=O)[nH]c2=O)CC1F", "note": "(stereo not given in full)", "values": [
      {"measurement": "CC50", "setting": "[1]", "result": "> 100", "unit": "µM"},
      {"measurement": "EC50", "setting": "[2]", "result": "> 0.21", "unit": "µM"},
      {"measurement": "CC50", "setting": "CCRF-CEM", "result": "> 100", "unit": "µM"}
    ]},
    {"smiles": "COC(=O)[C@H](Cc1c[nH]c2ccccc12)NP(=O)(OC)OCC1OC(n2cc(C)c(=O)[nH]c2=O)CC1F", "note": "(stereo not given in full)", "values": [
      {"measurement": "CC50", "setting": "[1]", "result": "> 100", "unit": "µM"},
      {"measurement": "EC50", "setting": "[2]", "result": 0.29, "unit": "µM"},
      {"measurement": "CC50", "setting": "CCRF-CEM", "result": "> 100", "unit": "µM"}
    ]},
    {"smiles": "COC(=O)[C@H](Cc1c[nH]c2ccccc12)NP(=O)(O)OC[C@H]1O[C@@H](n2cc(C)c(=O)[nH]c2=O)C[C@@H]1N=[N+]=[N-]", "values": [
      {"measurement": "CC50", "setting": "[1]", "result": "> 100", "unit": "µM"},
      {"measurement": "EC50", "setting": "[2]", "result": 0.01, "unit": "µM"},
      {"measurement": "CC50", "setting": "CCRF-CEM", "result": "> 100", "unit": "µM"}
    ]},
    {"smiles": "COC(=O)[C@H](Cc1ccccc1)NP(=O)(O)OCC1OC(n2cc(C)c(=O)[nH]c2=O)CC1N=[N+]=[N-]", "note": "(stereo not given in full)", "values": [
      {"measurement": "CC50", "setting": "[1]", "result": "> 100", "unit": "µM"},
      {"measurement": "EC50", "setting": "[2]", "result": 0.6, "unit": "µM"},
      {"measurement": "CC50", "setting": "CCRF-CEM", "result": "> 100", "unit": "µM"}
    ]},
    {"smiles": "COC(=O)[C@H](Cc1c[nH]c2ccccc12)NP(=O)(OCCC#N)OCC1OC(n2cc(C)c(=O)[nH]c2=O)CC1N=[N+]=[N-]", "note": "(stereo not given in full)", "values": [
      {"measurement": "CC50", "setting": "[1]", "result": "> 100", "unit": "µM"},
      {"measurement": "EC50", "setting": "[2]", "result": 0.4, "unit": "µM"},
      {"measurement": "CC50", "setting": "CCRF-CEM", "result": "> 100", "unit": "µM"}
    ]},
    {"smiles": "COC(=O)[C@H](Cc1c[nH]c2ccccc12)NP(=O)(O)OCC1OC(n2cc(C)c(=O)[nH]c2=O)CC1F", "note": "(stereo not given in full)", "values": [
      {"measurement": "CC50", "setting": "[1]", "result": "> 100", "unit": "µM"},
      {"measurement": "EC50", "setting": "[2]", "result": 0.9, "unit": "µM"},
      {"measurement": "CC50", "setting": "CCRF-CEM", "result": 35.1, "unit": "µM"}
    ]},
    {"smiles": "COC(=O)[C@H](Cc1c[nH]c2ccccc12)NP(=O)(OCCC#N)OCC1OC(n2cc(C)c(=O)[nH]c2=O)CC1F", "note": "(stereo not given in full)", "values": [
      {"measurement": "CC50", "setting": "[1]", "result": "> 100", "unit": "µM"},
      {"measurement": "EC50", "setting": "[2]", "result": 0.2, "unit": "µM"},
      {"measurement": "CC50", "setting": "CCRF-CEM", "result": "> 95.6", "unit": "µM"}
    ]},
    {"smiles": "COC(=O)[C@H](Cc1ccccc1)NP(=O)(OCCC#N)OCC1OC(n2cc(C)c(=O)[nH]c2=O)CC1N=[N+]=[N-]", "note": "(stereo not given in full)", "values": [
      {"measurement": "CC50", "setting": "[1]", "result": "> 100", "unit": "µM"},
      {"measurement": "EC50", "setting": "[2]", "result": "> 1", "unit": "µM"},
      {"measurement": "CC50", "setting": "CCRF-CEM", "result": "> 100", "unit": "µM"}
    ]},
    {"smiles": "COC(=O)[C@H](Cc1ccccc1)NP(=O)(OC)OCC1OC(n2cc(C)c(=O)[nH]c2=O)CC1N=[N+]=[N-]", "note": "(stereo not given in full)", "values": [
      {"measurement": "CC50", "setting": "[1]", "result": "> 100", "unit": "µM"},
      {"measurement": "EC50", "setting": "[2]", "result": 0.09, "unit": "µM"},
      {"measurement": "CC50", "setting": "CCRF-CEM", "result": "> 50", "unit": "µM"}
    ]},
    {"smiles": "COC(=O)[C@H](Cc1c[nH]c2ccccc12)NP(=O)(OC)OCC1OC(n2cc(C)c(=O)[nH]c2=O)CC1N=[N+]=[N-]", "note": "(stereo not given in full)", "values": [
      {"measurement": "CC50", "setting": "[1]", "result": "> 50", "unit": "µM"},
      {"measurement": "EC50", "setting": "[2]", "result": 0.3, "unit": "µM"},
      {"measurement": "CC50", "setting": "CCRF-CEM", "result": "> 50", "unit": "µM"}
    ]},
    {"smiles": "Cc1cn([C@H]2C[C@H](F)[C@@H](CO)O2)c(=O)[nH]c1=O", "note": "[ALOVUDINE]", "values": [
      {"measurement": "CC50", "setting": "[1]", "result": 8.6, "unit": "µM"},
      {"measurement": "EC50", "setting": "[2]", "result": 0.001, "unit": "µM"}
    ]},
    {"smiles": "Cc1cn([C@H]2C[C@H](N=[N+]=[N-])[C@@H](CO)O2)c(=O)[nH]c1=O", "note": "[ZIDOVUDINE]", "values": [
      {"measurement": "CC50", "setting": "[1]", "result": "> 100", "unit": "µM"},
      {"measurement": "EC50", "setting": "[2]", "result": 0.08, "unit": "µM"},
      {"measurement": "CC50", "setting": "CCRF-CEM", "result": 14.3, "unit": "µM"}
    ]}
  ]
}
